Assay results as given in ChEMBL document CHEMBL4627332, “Interruption of Vif/Elongin C interaction: In silico and experimental elucidation of the underlying molecular mechanism of benzimidazole-based APOBEC3G stabilizers” (Bioorg Med Chem, 2020).
Activity calls are given as the source filed them. The calls are words filed in the database; no cut-off is given here.

Experiment: Inhibition of HIV1 Vif interaction with ElonginC (unknown origin) co-transfected in 293 T cells assessed as decrease in ElonginC precipitation at 20 uM measured after 1 hr in presence of ant-FLAG antibody by immunoblot analysis
Type: cell-based

Question: For `Cc1noc(C)c1CSc1nc2ccccc2n1-c1ccccc1`, which inhibition is on record?
Answer: Active
